Here are results for twelve compounds from patent US11553716B2, “Agricultural and horticultural fungicide composition” (Nippon Soda Co., Ltd., priority 2018, dated 2023).

The experiment has as its system cucumber gray mold disease fungi (Botrytis cinerea). The experiment is described as follows: Cucumber gray mold control test. It is filed as in vivo. As to conditions: for pest or weed control at 0.025 ppm: Compound A 0.025 ppm alone (Compound B 0 ppm); for pest or weed control at 0.0063 ppm: Compound A 0.0063 ppm alone (Compound B 0 ppm). The procedure: The compound A and the compound B were dissolved in an organic solvent and a surfactant to obtain an emulsion. The emulsion was diluted to a prescribed concentration with water. The dilute emulsion was sprayed to cotyledons of cucumber (variety: Shimoshirazu). They were naturally dried at room temperature. Thereafter, a conidiospore suspension of cucumber gray mold disease fungi (Botrytis cinerea) was dropwise inoculated. It was placed in a dark room at 20° C. and high humidity for 4 days. Appearance of disease spots on the leaves and that on untreated leaves were compared and studied, and a control ratio was calculated. The test was carried out in duplicate.
Based on the Colby's equation, a theoretical control ratio in the dilute emulsion prepared by using the compound A and the compound B together was calculated from a measured control ratio in the dilute emulsion prepared by using the compound A alone and that in the dilute emulsion prepared by using the compound B alone. Colby's equation: E=M+N−MN/100
M: measured control ratio (%) in dilute emulsion prepared by using compound A alone
N: measured control ratio (%) in dilute emulsion prepared by using compound B alone
E: theoretical control ratio (%) in dilute emulsion prepared by using compound A and compound B together
A control ratio of 0% means that disease spots of the same level as those of the non-treatment plot were observed, and a control ratio of 100% means that no disease spot was observed.
The test was carried out in the same manner as in Example 1.

The mark [1] stands for this setting: Botrytis cinerea, 96 h, read-out: Cucumber gray mold control ratio, Table 4.
Where [2] appears, read: Botrytis cinerea, 96 h, read-out: Cucumber gray mold control ratio, Table 5.
Setting [3] is: Botrytis cinerea, 96 h, Table 4, Compound B 100 ppm alone (Compound A 0 ppm), read-out: Cucumber gray mold control ratio.
Setting [4] is: Botrytis cinerea, 96 h, Table 4, Compound B 0.4 ppm alone (Compound A 0 ppm), read-out: Cucumber gray mold control ratio.
Where [5] appears, read: Botrytis cinerea, 96 h, Table 4, Compound B 1.6 ppm alone (Compound A 0 ppm), read-out: Cucumber gray mold control ratio.

Like-named read-outs stand apart in the source and are kept apart here.

With `Cc1ccc2nc3sc(=O)sc3nc2c1` [Chinomethionat, chinomethionat], for the setting “Botrytis cinerea, 96 h, read-out: Cucumber gray mold control ratio, Table 5, Compound B 100 ppm alone (Compound A 0 ppm)”, the pest or weed control at 100 µg/mL was 20%. The pest or weed control at 400 µg/mL (Botrytis cinerea, 96 h, read-out: Cucumber gray mold control ratio, Table 5, Compound B 400 ppm alone (Compound A 0 ppm)) was determined as 14%.

Take `Cc1nc2c(F)c(F)ccc2cc1Oc1cccc(F)c1C(C)(C)O` [Compound A, 2-{2-[(7,8-difluoro-2-methylquinolin-3-yl)oxy]-6-fluorophenyl}propan-2-ol]: the pest or weed control at 0.025 ppm stood at 24% (Botrytis cinerea, 96 h, read-out: Cucumber gray mold control ratio, Table 1); 17% (Botrytis cinerea, 96 h, read-out: Cucumber gray mold control ratio, Table 2); 5% (Botrytis cinerea, 96 h, read-out: Cucumber gray mold control ratio, Table 3); 7% under setting [1]; 17% under setting [2]. The pest or weed control at 0.1 ppm runs as follows: (Botrytis cinerea, 96 h, read-out: Cucumber gray mold control ratio, Table 1, Compound A 0.1 ppm alone (Compound B 0 ppm)) 89%; (Botrytis cinerea, 96 h, read-out: Cucumber gray mold control ratio, Table 2, Compound A 0.1 ppm alone (Compound B 0 ppm)) 48%; (Botrytis cinerea, 96 h, read-out: Cucumber gray mold control ratio, Table 3, Compound A 0.1 ppm alone (Compound B 0 ppm)) 53%; (Botrytis cinerea, 96 h, read-out: Cucumber gray mold control ratio, Table 4, Compound A 0.1 ppm alone (Compound B 0 ppm)) 26%; (Botrytis cinerea, 96 h, read-out: Cucumber gray mold control ratio, Table 5, Compound A 0.1 ppm alone (Compound B 0 ppm)) 64%. The pest or weed control at 0.0063 ppm by setting is: under setting [1], 10%; under setting [2], 3%.

`C=CCNC(=O)c1c([Si](C)(C)C)sc(C)c1C` [Compound B, silthiofam]: under “Botrytis cinerea, 96 h, read-out: Cucumber gray mold control ratio, Table 1, Compound B 400 ppm alone (Compound A 0 ppm)”, the pest or weed control at 400 ppm was found to be 0%. Where the note is “Botrytis cinerea, 96 h, read-out: Cucumber gray mold control ratio, Table 2, Compound B 6.3 ppm alone (Compound A 0 ppm)”, the pest or weed control at 6.3 ppm was 0%. Also, the pest or weed control at 25 ppm (Botrytis cinerea, 96 h, read-out: Cucumber gray mold control ratio, Table 2, Compound B 25 ppm alone (Compound A 0 ppm)) came to 0%. Also, the pest or weed control at 100 ppm (Botrytis cinerea, 96 h, read-out: Cucumber gray mold control ratio, Table 2, Compound B 100 ppm alone (Compound A 0 ppm)) was determined as 5%. Besides, under “Botrytis cinerea, 96 h, read-out: Cucumber gray mold control ratio, Table 3, Compound B 0.1 ppm alone (Compound A 0 ppm)”, the pest or weed control at 0.1 ppm was 0%. Besides, the pest or weed control at 0.4 ppm (Botrytis cinerea, 96 h, read-out: Cucumber gray mold control ratio, Table 3, Compound B 0.4 ppm alone (Compound A 0 ppm)) was 0%. Where the note is “Botrytis cinerea, 96 h, read-out: Cucumber gray mold control ratio, Table 3, Compound B 1.6 ppm alone (Compound A 0 ppm)”, the pest or weed control at 1.6 ppm was 0%.

`N#Cc1sc2c(=O)c3ccccc3c(=O)c=2sc1C#N` [Dithianon, dithianon]: the pest or weed control at 25 µg/mL (Botrytis cinerea, 96 h, Table 4, Compound B 25 ppm alone (Compound A 0 ppm), read-out: Cucumber gray mold control ratio) was found to be 13%. The pest or weed control at 100 µg/mL under setting [3] was determined as 10%.

Turning to `CC#Cc1cc(C)nc(Nc2ccccc2)n1` [Mepanipyrim, mepanipyrim], the pest or weed control at 0.4 µg/mL under setting [4] was 19%. Under setting [5], the pest or weed control at 1.6 µg/mL worked out at 29%.

As to `CC1(C)CCC(Cc2ccc(Cl)cc2)C1(O)Cn1cncn1` (stereo not drawn) [Metconazole, metconazole], under setting [4], the pest or weed control at 0.4 µg/mL was determined as 22%. Besides, under setting [5], the pest or weed control at 1.6 µg/mL is 29%.

Regarding `CN(C)[C@@H]1C(O)=C(C(N)=O)C(=O)[C@@]2(O)C(O)=C3C(=O)c4c(O)cccc4[C@@](C)(O)[C@H]3[C@H](O)[C@@H]12` [Oxytetracycline, oxytetracycline], where the note is “Botrytis cinerea, 96 h, Table 5, Compound B 100 ppm alone (Compound A 0 ppm), read-out: Cucumber gray mold control ratio”, the pest or weed control at 100 µg/mL was 18%. The pest or weed control at 400 µg/mL (Botrytis cinerea, 96 h, Table 5, Compound B 400 ppm alone (Compound A 0 ppm), read-out: Cucumber gray mold control ratio) worked out at 21%.

As to `CCCC1COC(Cn2cncn2)(c2ccc(Cl)cc2Cl)O1` (stereo not drawn) [Propiconazole, propiconazole], under “Botrytis cinerea, 96 h, Table 5, Compound B 1.6 ppm alone (Compound A 0 ppm), read-out: Cucumber gray mold control ratio”, the pest or weed control at 1.6 µg/mL came out at 26%. Under “Botrytis cinerea, 96 h, Table 5, Compound B 6.3 ppm alone (Compound A 0 ppm), read-out: Cucumber gray mold control ratio”, the pest or weed control at 6.3 µg/mL was determined as 42%.

Consider `COC(=O)N(OC)c1ccccc1COc1ccn(-c2ccc(Cl)cc2)n1` [Pyraclostrobin, pyraclostrobin], for which the pest or weed control at 1.6 µg/mL under setting [5] was found to be 23%. Besides, the pest or weed control at 6.3 µg/mL (Botrytis cinerea, 96 h, Table 4, Compound B 6.3 ppm alone (Compound A 0 ppm), read-out: Cucumber gray mold control ratio) came out at 46%.

Consider `Cc1cc(C)nc(Nc2ccccc2)n1` [Pyrimethanil, pyrimethanil], for which, under setting [4], the pest or weed control at 0.4 µg/mL came to 6%. Moreover, under setting [5], the pest or weed control at 1.6 µg/mL was 16%.

For `[H]/N=C(/N)N[C@H]1[C@H](O)[C@@H](O)[C@H](O[C@@H]2O[C@@H](C)[C@](O)(C=O)[C@H]2O[C@@H]2O[C@@H](CO)[C@H](O)[C@@H](O)[C@@H]2NC)[C@@H](N/C(N)=N\[H])[C@@H]1O` [Streptomycin, streptomycin], the pest or weed control at 100 µg/mL under setting [3] worked out at 12%. The pest or weed control at 400 µg/mL (Botrytis cinerea, 96 h, Table 4, Compound B 400 ppm alone (Compound A 0 ppm), read-out: Cucumber gray mold control ratio) worked out at 13%.

For propineb, the “Cucumber gray mold control ratio” value stood at 27% (Table 5, Compound B 100 ppm alone (Compound A 0 ppm)) and 33% (Table 5, Compound B 400 ppm alone (Compound A 0 ppm)).
